US9000186B2, “Ring-fused heterocyclic derivative” (Kyowa Hakko Kirin Co., Ltd., priority 2011, dated 2015)
Like-named read-outs stand apart in the source and are kept apart here.

What was measured:
[1] = biological target: T1, human Cav3.2 T-type Ca2+ channel (Homo sapiens, UniProt O95180); experiment: Inhibitory effect for intracellular calcium response via Cav3.2 T-type Ca2+ channels (FLIPR Calcium 3 Assay Kit); type: cell-based
T1 construct: expressed in transfected cells; host or cells: KJMGER8 cells (Namalwa cell-derived cell line)

[2] = tested on: morphine-induced pruritus mice; experiment: Inhibitory effect for pruritus in morphine-induced pruritus mice; type: in vivo, male ddY mice; conditions: oral, dose of 30 mg/kg or less, 30 minutes before intrathecal morphine (1 nmol/5 μL); scratching counted for 30 minutes
Method: Morphine (1 nmol/5 μL, dissolved in physiological saline) or physiological saline was intrathecally administered between the fifth and sixth lumbar vertebrae of male ddY mice using a microsyringe fitted with a 30-gauge injection needle. Mice administered with only morphine were used as a control group, and mice administered with only physiological saline as a physiological saline-administered group.
After the morphine administration, the number of scratching behavior with the hind legs which observed immediately in the mice was measured for 30 minutes. Because mice show a rapid, continuous scratching behavior in each scratching behavior, a series of such behavior was counted as a single scratching behavior.
The test compounds were administered 30 minutes before the morphine administration. Each test compound was suspended in a 0.5% methylcellulose solution, and orally administered in 10 mL/kg volume.

[3] = human Cav3.2-expressing KJMGER8 cells (Namalwa-derived), calcium response induced by 5 mmol/L CaCl2, normalised to 3 μmol/L mibefradil, read-out: IC50 for the human Cav3.2 T-type Ca2+ current

T1 sequence (O95180 whole entry): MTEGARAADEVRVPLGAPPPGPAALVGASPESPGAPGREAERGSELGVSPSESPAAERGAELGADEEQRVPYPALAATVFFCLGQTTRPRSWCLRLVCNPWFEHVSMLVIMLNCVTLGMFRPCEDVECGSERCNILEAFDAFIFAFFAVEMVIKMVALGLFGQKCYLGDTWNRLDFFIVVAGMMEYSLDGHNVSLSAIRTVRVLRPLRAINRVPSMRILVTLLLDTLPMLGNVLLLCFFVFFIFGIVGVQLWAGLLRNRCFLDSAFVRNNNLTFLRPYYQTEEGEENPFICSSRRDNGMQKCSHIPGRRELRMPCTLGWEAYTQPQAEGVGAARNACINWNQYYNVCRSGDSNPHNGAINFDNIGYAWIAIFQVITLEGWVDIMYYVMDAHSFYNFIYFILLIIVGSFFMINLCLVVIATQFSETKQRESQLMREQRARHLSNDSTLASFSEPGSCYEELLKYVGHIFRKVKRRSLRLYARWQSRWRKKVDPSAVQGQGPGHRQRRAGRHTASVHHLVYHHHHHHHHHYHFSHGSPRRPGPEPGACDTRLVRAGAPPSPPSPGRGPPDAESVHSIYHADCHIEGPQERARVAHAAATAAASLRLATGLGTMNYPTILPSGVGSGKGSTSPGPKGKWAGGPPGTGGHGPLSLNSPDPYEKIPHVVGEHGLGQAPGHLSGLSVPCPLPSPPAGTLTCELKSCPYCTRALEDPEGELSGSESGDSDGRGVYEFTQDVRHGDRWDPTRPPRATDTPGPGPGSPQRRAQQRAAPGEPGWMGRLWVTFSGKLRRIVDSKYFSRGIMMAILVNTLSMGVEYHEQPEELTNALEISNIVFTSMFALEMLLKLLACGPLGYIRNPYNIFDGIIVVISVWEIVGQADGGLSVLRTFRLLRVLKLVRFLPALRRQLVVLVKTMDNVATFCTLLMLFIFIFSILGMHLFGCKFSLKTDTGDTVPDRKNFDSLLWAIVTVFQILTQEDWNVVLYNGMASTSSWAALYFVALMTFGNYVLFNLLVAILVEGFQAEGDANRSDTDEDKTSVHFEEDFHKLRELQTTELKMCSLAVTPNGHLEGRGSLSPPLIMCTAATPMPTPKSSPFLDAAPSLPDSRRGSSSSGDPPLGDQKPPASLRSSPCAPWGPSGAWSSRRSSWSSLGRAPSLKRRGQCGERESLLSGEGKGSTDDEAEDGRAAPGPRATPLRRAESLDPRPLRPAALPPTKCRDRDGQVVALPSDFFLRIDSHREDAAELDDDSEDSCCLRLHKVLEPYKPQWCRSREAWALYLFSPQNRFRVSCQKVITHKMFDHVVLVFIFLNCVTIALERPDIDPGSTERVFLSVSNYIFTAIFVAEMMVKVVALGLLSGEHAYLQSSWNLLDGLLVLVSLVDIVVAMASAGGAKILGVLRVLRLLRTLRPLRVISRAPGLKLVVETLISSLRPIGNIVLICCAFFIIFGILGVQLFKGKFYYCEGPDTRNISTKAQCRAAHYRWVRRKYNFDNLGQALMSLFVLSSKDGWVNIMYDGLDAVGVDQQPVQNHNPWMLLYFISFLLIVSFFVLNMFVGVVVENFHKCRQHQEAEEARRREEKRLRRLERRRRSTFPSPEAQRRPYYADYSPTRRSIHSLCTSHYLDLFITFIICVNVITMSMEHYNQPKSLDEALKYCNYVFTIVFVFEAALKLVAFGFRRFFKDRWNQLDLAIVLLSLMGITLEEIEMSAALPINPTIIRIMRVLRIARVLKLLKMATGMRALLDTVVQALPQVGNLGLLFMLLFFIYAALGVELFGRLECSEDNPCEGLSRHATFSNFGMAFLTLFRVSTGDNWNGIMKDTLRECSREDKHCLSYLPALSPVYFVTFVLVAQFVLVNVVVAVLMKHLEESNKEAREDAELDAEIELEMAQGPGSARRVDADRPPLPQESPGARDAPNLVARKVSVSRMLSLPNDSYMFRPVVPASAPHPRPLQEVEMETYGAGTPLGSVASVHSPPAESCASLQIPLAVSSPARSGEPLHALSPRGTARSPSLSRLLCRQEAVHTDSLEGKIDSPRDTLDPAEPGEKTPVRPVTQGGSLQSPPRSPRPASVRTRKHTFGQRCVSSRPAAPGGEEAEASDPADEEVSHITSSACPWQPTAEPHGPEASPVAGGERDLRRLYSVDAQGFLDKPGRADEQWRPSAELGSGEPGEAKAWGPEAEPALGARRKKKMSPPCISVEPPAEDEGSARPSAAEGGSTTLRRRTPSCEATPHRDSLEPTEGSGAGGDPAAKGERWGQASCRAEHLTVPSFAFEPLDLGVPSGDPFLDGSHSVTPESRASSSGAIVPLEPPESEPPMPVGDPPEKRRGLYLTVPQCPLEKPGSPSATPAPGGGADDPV

Row | Compound | IC50 [1] [nM] | increase of the scratching behavior observed in the morphine-induced pruritus mice [2] | IC50 [1, 3] [nM]
1 | O=C(NC1CCOCC1)c1cc(Cl)n2c(CC3CCC(F)(F)CC3)c(C(F)(F)F)nc2c1 [Compound 104, 5-Chloro-3-(4,4-difluorocyclohexylmethyl)-N-(tetrahydro-2H-pyran-4-yl)-2-trifluoromethylimidazo[1,2-a]pyridine-7-carboxamide] | < 100 | inhibited | 
2 | O=C(Nc1ccn2c(CC3CCC(F)(F)CC3)c(C(F)(F)F)nc2c1)c1ccccc1 [Compound 126, N-{3-(4,4-Difluorocyclohexylmethyl)-2-trifluoromethylimidazo[1,2-a]pyridin-7-yl}benzamide] | < 100 | inhibited | 
3 | Cc1cc(C(=O)NC2CCOCC2)cc2nc(C(C)C)c(CC3CCC(F)(F)CC3)n12 [Compound 101, 3-(4,4-Difluorocyclohexylmethyl)-2-isopropyl-5-methyl-N-(tetrahydro-2H-pyran-4-yl)imidazo[1,2-a]pyridine-7-carboxamide] | < 100 | inhibited | 
4 | CC(C)c1nc2cc(C(=O)NC3CCOCC3)c(Cl)cn2c1CC1CCC(F)(F)CC1 [Compound 111, 6-Chloro-3-(4,4-difluorocyclohexylmethyl)-2-isopropyl-N-(tetrahydro-2H-pyran-4-yl)imidazo[1,2-a]pyridine-7-carboxamide] | < 100 | inhibited | 
5 | CC(C)c1nc2cc(C(=O)Nc3ccncc3)ccn2c1COC1CCCCC1 [Compound 24, 3-Cyclohexyloxymethyl-2-isopropyl-N-(pyridin-4-yl)imidazo[1,2-a]pyridine-7-carboxamide] |  | inhibited | < 100
6 | CC(C)c1nc2cc(C(=O)Nc3ccccc3)ccn2c1S(=O)(=O)C1CCCCC1 [Compound 41, 3-Cyclohexylsulfonyl-2-isopropyl-N-phenylimidazo[1,2-a]pyridine-7-carboxamide] | < 100 | inhibited | 
7 | O=C(NC1CCOCC1)c1cc2nc(C(F)(F)F)c(CC3CCC(F)(F)CC3)n2cc1Cl [Compound 108, 6-Chloro-3-(4,4-difluorocyclohexylmethyl)-N-(tetrahydro-2H-pyran-4-yl)-2-trifluoromethylimidazo[1,2-a]pyridine-7-carboxamide] | < 100 | inhibited | 
8 | Cc1cc(C(=O)NC2CCC(F)(F)CC2)cc2nc(C(F)(F)F)c(CC3CCC(F)(F)CC3)n12 [Compound 72, N-(4,4-Difluorocyclohexyl)-3-(4,4-difluorocyclohexylmethyl)-5-methyl-2-trifluoromethylimidazo[1,2-a]pyridine-7-carboxamide] | < 100 | inhibited | 
9 | Cc1cn2c(CC3CCC(F)(F)CC3)c(C(F)(F)F)nc2cc1C(=O)NC1CCOCC1 [Compound 118, 3-(4,4-Difluorocyclohexylmethyl)-6-methyl-N-(tetrahydro-2H-pyran-4-yl)-2-trifluoromethylimidazo[1,2-a]pyridine-7-carboxamide] |  | inhibited | 
10 | CC(C)c1nc2cc(C(=O)Nc3ccncc3)ccn2c1S(=O)(=O)C1CCCCC1 [Compound 38, 3-Cyclohexylsulfonyl-2-isopropyl-N-(pyridin-4-yl)imidazo[1,2-a]pyridine-7-carboxamide] | < 100 | inhibited | 
11 | Cc1cc(C(=O)NCC2(C#N)CCOCC2)cc2nc(C(F)(F)F)c(CC3CCC(F)(F)CC3)n12 [Compound 84, N-{(4-Cyanotetrahydro-2H-pyran-4-yl)methyl}-3-(4,4-difluorocyclohexylmethyl)-5-methyl-2-trifluoromethylimidazo[1,2-a]pyridine-7-carboxamide] | < 100 | inhibited | 
12 | CC1(C)CC(NC(=O)c2cc(Cl)n3c(CC4CCC(F)(F)CC4)c(C(F)(F)F)nc3c2)CCO1 (stereo not drawn) [Compound 105, 5-Chloro-3-(4,4-difluorocyclohexylmethyl)-N-(2,2-dimethyltetrahydro-2H-pyran-4-yl)-2-trifluoromethylimidazo[1,2-a]pyridine-7-carboxamide] | < 100 | inhibited | 
13 | CC(C)(C)c1nc2cc(C(=O)NC3CCC3)ccn2c1CC1CCCCC1 [Compound 15, 2-tert-Butyl-N-cyclobutyl-3-cyclohexylmethylimidazo[1,2-a]pyridine-7-carboxamide] | < 100 | inhibited | 
14 | Cc1cc(NC(=O)c2cc3nc(C(C)C)c(S(=O)(=O)N4CC(F)(F)C4)n3cc2Cl)on1 [Compound 148, 6-Chloro-3-(3,3-difluoroazetidin-1-ylsulfonyl)-2-isopropyl-N-(3-methylisooxazol-5-yl)imidazo[1,2-a]pyridine-7-carboxamide] |  | inhibited | < 100
15 | Cc1cc(C(=O)NCC(C)(C)O)cc2nc(C(F)(F)F)c(CC3CCC(F)(F)CC3)n12 [Compound 78, 3-(4,4-Difluorocyclohexylmethyl)-N-(2-hydroxy-2-methylpropyl)-5-methyl-2-trifluoromethylimidazo[1,2-a]pyridine-7-carboxamide] | < 100 | inhibited | 
16 | CC1(NC(=O)c2ccn3c(CC4CCC(F)(F)CC4)c(C(F)(F)F)nc3c2)CCOCC1 [Compound 52, 3-(4,4-Difluorocyclohexylmethyl)-N-(4-methyltetrahydro-2H-pyran-4-yl)-2-trifluoromethylimidazo[1,2-a]pyridine-7-carboxamide] | < 100 | inhibited | 
17 | CC1CCCN(C(=O)c2ccn3c(CC4CCCCC4)c(C(C)(C)C)nc3c2)C1 (stereo not drawn) [Compound 14, (2-tert-Butyl-3-cyclohexylmethylimidazo[1,2-a]pyridin-7-yl)(3-methylpiperidin-1-yl)methanone] | < 100 | inhibited | 
18 | Cc1cc(C(=O)NCC2CCOCC2)cc2nc(C(F)(F)F)c(CC3CCC(F)(F)CC3)n12 [Compound 81, 3-(4,4-Difluorocyclohexylmethyl)-5-methyl-N-{(tetrahydro-2H-pyran-4-yl)methyl}-2-trifluoromethylimidazo[1,2-a]pyridine-7-carboxamide] | < 100 | inhibited | 
19 | Cc1cc(C(=O)NC2CCOCC2)cc2nc(C3(C)CC3)c(CC3CCC(F)(F)CC3)n12 [Compound 100, 3-(4,4-Difluorocyclohexylmethyl)-5-methyl-2-(1-methylcyclopropyl)-N-(tetrahydro-2H-pyran-4-yl)imidazo[1,2-a]pyridine-7-carboxamide] | < 100 | inhibited | 
20 | Cc1cc(C(=O)NC2CCOC(C)(C)C2)cc2nc(C(F)(F)F)c(CC3CCC(F)(F)CC3)n12 (stereo not drawn) [Compound 75, 3-(4,4-Difluorocyclohexylmethyl)-N-(2,2-dimethyltetrahydro-2H-pyran-4-yl)-5-methyl-2-trifluoromethylimidazo[1,2-a]pyridine-7-carboxamide] |  | inhibited | < 100
21 | CC(C)c1nc2cc(C(=O)Nc3ccccc3)ccn2c1COC1CCCCC1 [Compound 21, 3-Cyclohexyloxymethyl-2-isopropyl-N-phenylimidazo[1,2-a]pyridine-7-carboxamide] |  | inhibited | < 100
22 | Cc1cc(C(=O)NC2CCOCC2)cc2nc(C(F)(F)F)c(CC3CCC(F)(F)CC3)n12 [Compound 44, 3-(4,4-Difluorocyclohexylmethyl)-5-methyl-N-(tetrahydro-2H-pyran-4-yl)-2-trifluoromethylimidazo[1,2-a]pyridine-7-carboxamide] |  | inhibited | 
23 | O=C(NC1CC(F)(F)C1)c1ccn2c(CC3CCC(F)(F)CC3)c(C(F)(F)F)nc2c1 [Compound 51, N-(3,3-Difluorocyclobutyl)-3-(4,4-difluorocyclohexylmethyl)-2-trifluoromethylimidazo[1,2-a]pyridine-7-carboxamide] | < 100 | inhibited | 
24 | CC(C)(O)CNC(=O)c1cc(Cl)n2c(CC3CCC(F)(F)CC3)c(C(F)(F)F)nc2c1 [Compound 182, 5-Chloro-3-(4,4-difluorocyclohexylmethyl)-N-(2-hydroxy-2-methylpropyl)-2-trifluoromethylimidazo[1,2-a]pyridine-7-carboxamide] | < 100 | inhibited | 
25 | CC1(C)CC(NC(=O)c2ccn3c(CC4CCC(F)(F)CC4)c(C(F)(F)F)nc3c2)CCO1 (stereo not drawn) [Compound 54, 3-(4,4-Difluorocyclohexylmethyl)-N-(2,2-dimethyltetrahydro-2H-pyran-4-yl)-2-trifluoromethylimidazo[1,2-a]pyridine-7-carboxamide] |  | inhibited | 
26 | O=C(Nc1ccncc1)c1ccn2c(CC3CCC(F)(F)CC3)c(C(F)(F)F)nc2c1 [Compound 36, 3-(4,4-Difluorocyclohexylmethyl)-N-(pyridin-4-yl)-2-trifluoromethylimidazo[1,2-a]pyridine-7-carboxamide] |  | inhibited | 
